From ChEMBL document CHEMBL4420066, “Aryl amine substituted quinoxaline used as anticancer drugs” (2017)
Calls of active or inactive are those of the source. No cut-off for these calls is given here.

How the values were obtained:
Hep 3B2 [1] = experiment: Inhibition of PP2A-C protein expression in human Hep3B cells at 1 uM incubated for 24 hrs by Western blotting analysis; format: functional, cell-based
Homo sapiens [2] = species on record: Homo sapiens; experiment: Activation of PP2A in human SKHEP1 cells assessed as minimal concentration causing increase in protein phosphatase activity incubated for 24 hrs using phosphopeptide substrate incubated for 10 mins by malachite green-phosphate complex assay; format: cell-based
Homo sapiens [3] = species on record: Homo sapiens; experiment: Inhibition of His-tagged recombinant human SET1 protein (1 to 290 amino acids) expressed in Escherichia coli interaction with N-terminal GST-tagged recombinant human PP2A-C (1 to 309 amino acids) assessed as minimal concentration causing disruption of SET-PP2Ac binding by SPR assay
Homo sapiens [4] = species on record: Homo sapiens; experiment: Induction of apoptosis in human PLC5 cells at 2 uM incubated for 24 hrs in presence of 100 nM PP2A inhibitor okadaic acid by annexin-V-FITC staining based by flow cytometry; format: functional, cell-based
Homo sapiens [5] = species on record: Homo sapiens; experiment: Induction of CIP2A protein degradation in human PLC5 cells incubated for 4 to 24 hrs; format: functional, cell-based
[6] = target: T1, Serine/threonine-protein kinase AKT (Homo sapiens) (UniProt P31751+Q9Y243+P31749); experiment: Inhibition of Akt phosphorylation at S473 residue in human HA22T cells by Western blotting analysis; format: cell-based
Homo sapiens [7] = species on record: Homo sapiens; experiment: Inhibition of human CIP2A gene promoter activity in human PLC5 cells by luciferase reporter gene assay; format: cell-based
HA22T cell line [8] = experiment: Inhibition of PP2A-A protein expression in human HA22T cells at 1 uM incubated for 24 hrs by Western blotting analysis; format: functional, cell-based
Hep 3B2 [9] = experiment: Inhibition of PP2A-A protein expression in human Hep3B cells at 1 uM incubated for 24 hrs by Western blotting analysis; format: functional, cell-based
Homo sapiens [10] = species on record: Homo sapiens; experiment: Induction of apoptosis in human PLC5 cells assessed as caspase-9 activation at 0.5 to 4 uM incubated for 48 hrs by Western blotting analysis; format: functional, cell-based
Homo sapiens [11] = species on record: Homo sapiens; experiment: Induction of apoptosis in human PLC5 cells assessed as induction of DNA fragmentation at 1 uM incubated for 24 hrs by ELISA; format: functional, cell-based
HA22T cell line [12] = experiment: Induction of apoptosis in human HA22T cells >= 2 uM incubated for 48 hrs by annexin-V-FITC staining based by flow cytometry relative to control; format: functional
Hep 3B2 [13] = experiment: Induction of apoptosis in human Hep3B cells >= 2 uM incubated for 48 hrs by annexin-V-FITC staining based by flow cytometry relative to control; format: functional
SK-HEP1 [14] = experiment: Induction of apoptosis in human SKHEP1 cells >= 2 uM incubated for 48 hrs by annexin-V-FITC staining based by flow cytometry relative to control; format: functional
HA22T cell line [15] = experiment: Induction of apoptosis in human HA22T cells assessed as induction of PARP cleavage at 0.5 to 4 uM incubated for 48 hrs by Western blotting analysis; format: functional, cell-based
SK-HEP1 [16] = experiment: Induction of apoptosis in human SKHEP1 cells assessed as caspase-3 activation at 0.5 to 4 uM incubated for 48 hrs by Western blotting analysis; format: functional, cell-based
Homo sapiens [17] = species on record: Homo sapiens; experiment: Inhibition of PP2A-C protein expression in human PLC5 cells at 1 uM incubated for 24 hrs by Western blotting analysis; format: functional, cell-based
[18] = Inhibition of CIP2A protein expression in human PLC5 cells assessed as CIP2A protein expression ratio level at 2 uM by Western blotting analysis (Rvb =1); format: functional
HA22T cell line [19] = experiment: Induction of apoptosis in human HA22T cells assessed as accumulation at subG1 phase at 0.5 to 4 uM by flow cytometry; format: functional, cell-based
SK-HEP1 [20] = experiment: Inhibition of CIP2A protein expression in human SKHEP1 cells assessed as CIP2A protein expression ratio level at 2 uM by Western blotting analysis (Rvb =1); format: functional
Homo sapiens [21] = species on record: Homo sapiens; experiment: Induction of apoptosis in human PLC5 cells assessed as accumulation at subG1 phase at 0.5 to 4 uM by flow cytometry; format: functional, cell-based
Hep 3B2 [22] = experiment: Inhibition of PP2A-B5 protein expression in human Hep3B cells at 1 uM incubated for 24 hrs by Western blotting analysis; format: functional, cell-based
Homo sapiens [23] = species on record: Homo sapiens; experiment: Activation of PP2A in human SKHEP1 cells assessed as increase in protein phosphatase activity at 1 uM incubated for 24 hrs using phosphopeptide substrate incubated for 10 mins by malachite green-phosphate complex assay; format: cell-based
Homo sapiens [24] = species on record: Homo sapiens; experiment: Activation of PP2A in human Hep3B cells assessed as minimal concentration causing increase in protein phosphatase activity incubated for 24 hrs using phosphopeptide substrate incubated for 10 mins by malachite green-phosphate complex assay; format: cell-based
Homo sapiens [25] = species on record: Homo sapiens; experiment: Inhibition of human CIP2A gene promoter in human PLC5 cells assessed as inhibition of ELK1 protein expression at 2 uM by Western blotting analysis; format: cell-based
Homo sapiens [26] = species on record: Homo sapiens; experiment: Inhibition of human CIP2A gene promoter -110/-1 mutant construct activity in human PLC5 cells by luciferase reporter gene assay; format: cell-based
SK-HEP1 [27] = experiment: Induction of necrosis in human SKHEP1 cells >= 2 uM incubated for 48 hrs by annexin-V-FITC staining based by flow cytometry relative to control; format: functional
Hep 3B2 [28] = experiment: Induction of apoptosis in human Hep3B cells assessed as caspase-3 activation at 0.5 to 4 uM incubated for 48 hrs by Western blotting analysis; format: functional, cell-based
[29] = target: T1, Serine/threonine-protein kinase AKT (Homo sapiens); experiment: Inhibition of Akt phosphorylation at S473 residue in human PLC5 cells at 2 uM incubated for 24 hrs in presence of PP2A-C siRNA by Western blotting analysis; format: cell-based
Homo sapiens [30] = species on record: Homo sapiens; experiment: Activation of PP2A in human Hep3B cells assessed as increase in protein phosphatase activity at 1 uM incubated for 24 hrs using phosphopeptide substrate incubated for 10 mins by malachite green-phosphate complex assay; format: cell-based
HA22T cell line [31] = experiment: Inhibition of CIP2A protein expression in human HA22T cells assessed as CIP2A protein expression ratio level at 1 uM by Western blotting analysis (Rvb =1); format: functional
HA22T cell line [32] = experiment: Inhibition of CIP2A protein expression in human HA22T cells assessed as CIP2A protein expression ratio level at 4 uM by Western blotting analysis (Rvb =1); format: functional
Homo sapiens [33] = species on record: Homo sapiens; experiment: Inhibition of ELK1 protein expression in human PLC5 cells at 2 uM by Western blotting analysis; format: functional, cell-based
Homo sapiens [34] = species on record: Homo sapiens; experiment: Activation of PP2A in human HA22T cells assessed as increase in protein phosphatase activity at 1 uM incubated for 24 hrs using phosphopeptide substrate incubated for 10 mins by malachite green-phosphate complex assay; format: cell-based
SK-HEP1 [35] = experiment: Inhibition of PP2A-B5 protein expression in human SKHEP1 cells at 1 uM incubated for 24 hrs by Western blotting analysis; format: functional, cell-based
Homo sapiens [36] = species on record: Homo sapiens; experiment: Inhibition of human CIP2A gene promoter in human PLC5 cells assessed as inhibition of ELK1 protein expression by Western blotting analysis; format: cell-based
Mus musculus [37] = experiment: Suppression of Akt phosphorylation at S473 residue in tumor of human PLC5 cells xenografted in mouse at 10 mg/kg dosed for 4 weeks by Western blot analysis; format: functional, organism-based
[38] = target: T1, Serine/threonine-protein kinase AKT (Homo sapiens); experiment: Inhibition of Akt phosphorylation at S473 residue in human Hep3B cells by Western blotting analysis; format: cell-based
Mus musculus [39] = experiment: Activation of PP2A activity in tumor of human PLC5 cells xenografted in mouse at 10 mg/kg dosed for 4 weeks; format: functional, organism-based

T1 sequence (P31749 whole entry, looked up): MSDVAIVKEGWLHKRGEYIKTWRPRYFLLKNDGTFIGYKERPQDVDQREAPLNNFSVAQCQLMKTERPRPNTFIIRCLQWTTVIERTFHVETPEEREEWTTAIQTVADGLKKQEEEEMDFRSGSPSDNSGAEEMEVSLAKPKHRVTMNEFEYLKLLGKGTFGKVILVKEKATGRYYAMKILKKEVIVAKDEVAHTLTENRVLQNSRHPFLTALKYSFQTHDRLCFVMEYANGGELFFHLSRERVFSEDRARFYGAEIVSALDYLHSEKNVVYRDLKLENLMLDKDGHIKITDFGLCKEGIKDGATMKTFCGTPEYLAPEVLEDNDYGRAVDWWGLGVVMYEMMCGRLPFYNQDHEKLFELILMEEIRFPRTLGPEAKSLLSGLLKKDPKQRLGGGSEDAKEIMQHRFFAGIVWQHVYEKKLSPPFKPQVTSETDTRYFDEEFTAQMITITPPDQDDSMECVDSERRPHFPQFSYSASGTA
T1 sequence (P31751 whole entry, looked up): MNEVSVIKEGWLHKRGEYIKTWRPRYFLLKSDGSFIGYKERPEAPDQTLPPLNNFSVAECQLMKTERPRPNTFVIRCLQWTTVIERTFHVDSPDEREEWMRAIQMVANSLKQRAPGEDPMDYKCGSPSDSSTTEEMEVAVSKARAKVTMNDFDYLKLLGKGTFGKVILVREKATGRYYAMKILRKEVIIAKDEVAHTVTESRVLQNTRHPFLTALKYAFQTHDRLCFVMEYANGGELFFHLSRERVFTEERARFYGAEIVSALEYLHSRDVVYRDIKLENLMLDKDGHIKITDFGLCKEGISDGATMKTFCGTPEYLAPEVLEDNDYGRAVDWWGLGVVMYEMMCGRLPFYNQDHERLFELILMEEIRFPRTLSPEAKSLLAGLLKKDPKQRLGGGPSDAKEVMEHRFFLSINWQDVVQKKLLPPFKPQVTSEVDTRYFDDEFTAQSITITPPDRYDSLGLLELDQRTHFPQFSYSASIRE
T1 sequence (Q9Y243 whole entry, looked up): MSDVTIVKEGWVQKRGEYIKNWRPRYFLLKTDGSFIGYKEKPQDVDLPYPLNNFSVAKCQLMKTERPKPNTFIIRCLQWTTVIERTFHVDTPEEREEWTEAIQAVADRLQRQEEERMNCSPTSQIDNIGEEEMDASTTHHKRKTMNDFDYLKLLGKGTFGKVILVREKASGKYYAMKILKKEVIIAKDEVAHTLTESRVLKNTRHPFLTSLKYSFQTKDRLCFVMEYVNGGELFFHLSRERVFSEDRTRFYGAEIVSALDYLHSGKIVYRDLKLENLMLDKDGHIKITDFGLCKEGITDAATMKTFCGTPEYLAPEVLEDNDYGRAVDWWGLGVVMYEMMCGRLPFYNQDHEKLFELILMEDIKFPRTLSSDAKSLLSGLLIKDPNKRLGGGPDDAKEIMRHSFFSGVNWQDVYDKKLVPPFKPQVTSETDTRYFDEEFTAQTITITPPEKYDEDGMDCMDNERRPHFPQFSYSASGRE

C#Cc1cccc(Nc2nc3ccccc3nc2Nc2cccc(C#C)c2)c1
inhibition (Hep 3B2 [1]): inactive | MEC (Homo sapiens [2]): 100 to 200 nM | MEC (Homo sapiens [3]): 100 to 200 nM | Activity (Homo sapiens [4]): inactive | Activity (Homo sapiens [5]): inactive | inhibition [6]: Dose-dependent effect | inhibition (Homo sapiens [7]): Dose-dependent effect | inhibition (HA22T cell line [8]): inactive | inhibition (Hep 3B2 [9]): inactive | Activity (Homo sapiens [10]): Dose-dependent effect | Activity (Homo sapiens [11]): Active | Activity (HA22T cell line [12]): 50% | Activity (Hep 3B2 [13]): 50% | Activity (SK-HEP1 [14]): 50% | Activity (HA22T cell line [15]): Dose-dependent effect | Activity (SK-HEP1 [16]): Dose-dependent effect | inhibition (Homo sapiens [17]): inactive | Ratio [18]: 0.01 | Activity (HA22T cell line [19]): Active | Ratio (SK-HEP1 [20]): 0.21 | Activity (Homo sapiens [21]): Active | inhibition (Hep 3B2 [22]): inactive | Activity (Homo sapiens [23]): Active | MEC (Homo sapiens [24]): 100 to 200 nM | inhibition (Homo sapiens [25]): Active | inhibition (Homo sapiens [26]): inactive | Activity (SK-HEP1 [27]): 50% | Activity (Hep 3B2 [28]): Dose-dependent effect | inhibition [29]: inactive | Activity (Homo sapiens [30]): Active | Ratio (HA22T cell line [31]): 0.84 | Ratio (HA22T cell line [32]): 0.01 | inhibition (Homo sapiens [33]): inactive | Activity (Homo sapiens [34]): Active | inhibition (SK-HEP1 [35]): inactive | inhibition (Homo sapiens [36]): Dose-dependent effect | Activity (Mus musculus [37]): Active | inhibition [38]: Dose-dependent effect | Activity (Mus musculus [39]): Active
